{"source": "patent US6689805B2", "about": "“Pyrazole-3-one derivative, method for preparing the same, and pharmaceutical composition containing the same” (CJ Corp., priority 2002, dated 2004)", "key": {"COX-1": {"biological_target": "T1, COX-1 (Homo sapiens, UniProt P23219)", "T1 construct": "endogenous in cells", "T1 sequence (P23219 24-599)": "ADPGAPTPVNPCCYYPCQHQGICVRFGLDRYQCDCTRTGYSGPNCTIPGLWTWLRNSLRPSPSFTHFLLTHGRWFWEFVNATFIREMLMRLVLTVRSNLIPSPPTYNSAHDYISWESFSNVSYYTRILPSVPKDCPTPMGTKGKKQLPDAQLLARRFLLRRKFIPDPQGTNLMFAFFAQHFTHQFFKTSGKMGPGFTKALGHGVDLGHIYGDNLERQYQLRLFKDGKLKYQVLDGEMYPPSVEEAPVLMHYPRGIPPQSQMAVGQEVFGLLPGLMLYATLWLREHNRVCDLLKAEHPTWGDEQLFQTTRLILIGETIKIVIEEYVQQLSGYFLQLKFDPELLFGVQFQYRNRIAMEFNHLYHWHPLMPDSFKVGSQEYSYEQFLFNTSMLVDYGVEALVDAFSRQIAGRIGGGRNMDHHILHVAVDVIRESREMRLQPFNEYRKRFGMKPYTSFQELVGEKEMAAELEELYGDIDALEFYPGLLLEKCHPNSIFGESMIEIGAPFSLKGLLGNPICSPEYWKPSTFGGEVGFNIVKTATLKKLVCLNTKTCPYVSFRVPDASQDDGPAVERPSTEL", "experiment": "Assay for the COX-1 inhibitory activity using U-937 (PGE2 inhibition)", "type": "cell-based", "settings": "test compound 1 μM; U-937 human lymphoma cells; PGE2 vs DMSO control; read-out: Cyclooxygenase (COX) Inhibition (%) COX-1 (1 μM)", "method": "The collected cells were diluted with HBSS (x1, Hank's balanced salt solution) to a concentration of 1×10^6 cells/ml. 1 ml of the dilute cell solution was placed into each well of 12-well plates. 5 μl of 1 μM solution of a test compound in DMSO and 5 μl of DMSO as a control were added to the wells. The wells were incubated in CO2 incubator at 37° C. for 15 minutes. Separately, 10 mM stock solution of arachidonic acid in ethanol was diluted ten times in ethanol to prepare 1 mM solution of arachidonic acid. Arachidonic acid acts as a substrate. 10 μl of the 1 mM solution of arachidonic acid was added to each well and incubated at CO2 incubator at 37° C. for 30 minutes. The cell solution of each well was placed in a centrifuge test tube and centrifuged at 10,000 rpm at 4° C. for 5 minutes. The concentration of PGE2 in the collected cells and the supernatant was quantified by means of a monoclonal kit (Cayman Chemicals). The percentages of PGE2 inhibition in a group of the test compound-treated cells in relation to a group of the DMSO-treated cells were calculated. Based on the calculated values, the COX-1 inhibitory activities were evaluated.\n(§1) The percentages of the COX inhibition were calculated according to the following equation:\n(§2) % Inhibition=(concentration of PGE2 in test compound-untreated sample−concentration of PGE2 in test compound-treated sample) / (concentration of PGE2 in test compound-untreated sample)×100"}, "COX-2": {"biological_target": "T2, COX-2 (Mus musculus, UniProt Q05769)", "T2 construct": "endogenous in cells", "T2 sequence (Q05769 18-604)": "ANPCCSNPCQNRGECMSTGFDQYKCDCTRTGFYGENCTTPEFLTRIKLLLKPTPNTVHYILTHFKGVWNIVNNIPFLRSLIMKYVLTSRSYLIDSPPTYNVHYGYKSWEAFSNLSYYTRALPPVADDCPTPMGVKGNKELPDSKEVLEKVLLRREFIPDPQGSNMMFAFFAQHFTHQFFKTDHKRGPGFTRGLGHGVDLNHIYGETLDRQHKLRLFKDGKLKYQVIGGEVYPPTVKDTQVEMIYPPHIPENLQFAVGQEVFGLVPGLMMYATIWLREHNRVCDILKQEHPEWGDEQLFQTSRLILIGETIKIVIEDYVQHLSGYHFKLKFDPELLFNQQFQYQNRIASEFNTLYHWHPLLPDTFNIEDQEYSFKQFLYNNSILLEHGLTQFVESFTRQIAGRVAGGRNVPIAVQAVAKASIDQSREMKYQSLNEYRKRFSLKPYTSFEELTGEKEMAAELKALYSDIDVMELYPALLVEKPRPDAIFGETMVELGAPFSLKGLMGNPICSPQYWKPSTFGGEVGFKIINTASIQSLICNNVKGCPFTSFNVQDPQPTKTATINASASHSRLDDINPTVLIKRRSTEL", "experiment": "Assay for the COX-2 inhibitory activity using RAW 264.7 cell line (PGE2 inhibition)", "type": "cell-based", "settings": "RAW264.7, test compound 10 nM, RAW 264.7 cells, interferon + LPS induced, read-out: Cyclooxygenase (COX) Inhibition (%) COX-2 (10 nM)", "method": "Each well was treated with 250 μM of aspirin and incubated at 37° C. for 2 hours. After the culture media were replaced with new culture media, the new culture media were treated with a test compound (10 nM) and incubated for 30 minutes. Then, each well was treated with interferon ? (100 units/ml) and lipopolysaccharide (LPS, 100 ng/ml) and incubated for 18 hours. The culture media were transferred to other test tubes. The concentration of PGE2 was quantified by means of the EIA kit (Cayman Chemicals).\nas §1, §2"}}, "data": [{"smiles": "COc1ccc(-c2c(-c3ccc(S(C)(=O)=O)cc3)n(C)n(C)c2=O)cc1", "note": "[Example 5, 5-(4-methanesulfonylphenyl)-4-(4-methoxyphenyl)-1,2-dimethyl-1,2-dihydropyrazole-3-one]", "values": [{"measurement": "inhibition at 1 µM", "setting": "COX-1", "result": 10.5, "unit": "%"}, {"measurement": "inhibition at 0.01 µM", "setting": "COX-2", "result": 22.5, "unit": "%"}, {"measurement": "melting point", "result": "245 to 247", "unit": "°C"}]}, {"smiles": "Cn1c(-c2ccc(S(C)(=O)=O)cc2)c(-c2ccccc2)c(=O)n1C", "note": "[Example 6, 5-(4-methanesulfonylphenyl)-1,2-dimethyl-4-phenyl-1,2-dihydropyrazole-3-one]", "values": [{"measurement": "inhibition at 1 µM", "setting": "COX-1", "result": 22.6, "unit": "%"}, {"measurement": "inhibition at 0.01 µM", "setting": "COX-2", "result": 13.2, "unit": "%"}, {"measurement": "melting point", "result": "210 to 212", "unit": "°C"}]}, {"smiles": "Cc1ccc(-c2c(-c3ccc(S(C)(=O)=O)cc3)n(C)n(C)c2=O)cc1", "note": "[Example 7, 5-(4-methanesulfonylphenyl)-1,2-dimethyl-4-(4-methylphenyl)-1,2-dihydropyrazole-3-one]", "values": [{"measurement": "inhibition at 1 µM", "setting": "COX-1", "result": 36.5, "unit": "%"}, {"measurement": "inhibition at 0.01 µM", "setting": "COX-2", "result": 12.5, "unit": "%"}, {"measurement": "melting point", "result": "247 to 249", "unit": "°C"}]}, {"smiles": "Cn1c(-c2ccc(S(C)(=O)=O)cc2)c(-c2ccc(Cl)c(Cl)c2)c(=O)n1C", "note": "[Example 8, 4-(3,4-dichlorophenyl)-5-(4-methanesulfonylphenyl)-1,2-dimethyl-1,2-dihydropyrazole-3-one]", "values": [{"measurement": "melting point", "result": "240 to 242", "unit": "°C"}]}, {"smiles": "Cc1onc(-c2ccccc2)c1-c1ccc(S(N)(=O)=O)cc1", "note": "[Reference (Valdecoxib), Valdecoxib, reference compound]", "values": [{"measurement": "inhibition at 1 µM", "setting": "COX-1", "result": 28.8, "unit": "%"}]}]}
